In ChEMBL document CHEMBL1141525, “Substituted 2,2-bisaryl-bicycloheptanes as novel and potent inhibitors of 5-lipoxygenase activating protein” (Bioorg Med Chem Lett, 2008):

Key:
[1] = biological target: T1, Arachidonate 5-lipoxygenase-activating protein (Homo sapiens, UniProt P20292); assay: Displacement of [125I]L-691831 from FLAP
T1 sequence (P20292 whole entry): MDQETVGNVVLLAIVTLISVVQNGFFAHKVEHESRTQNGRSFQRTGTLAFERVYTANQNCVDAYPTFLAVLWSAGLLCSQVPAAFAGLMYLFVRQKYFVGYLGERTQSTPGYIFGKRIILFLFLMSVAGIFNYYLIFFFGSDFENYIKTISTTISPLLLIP

[2] = Inhibition of calcium ionophore-stimulated LTB4 production in human PMN cells; assay type: functional, cell-based
[3] = tested on: Blood; assay: Inhibition of calcium ionophore-stimulated LTB4 production in human whole blood; assay type: functional, tissue-based
[4] = biological target: T2, Polyunsaturated fatty acid 5-lipoxygenase (Homo sapiens, UniProt P09917); assay: Inhibition of 5LOX
T2 sequence (P09917 whole entry): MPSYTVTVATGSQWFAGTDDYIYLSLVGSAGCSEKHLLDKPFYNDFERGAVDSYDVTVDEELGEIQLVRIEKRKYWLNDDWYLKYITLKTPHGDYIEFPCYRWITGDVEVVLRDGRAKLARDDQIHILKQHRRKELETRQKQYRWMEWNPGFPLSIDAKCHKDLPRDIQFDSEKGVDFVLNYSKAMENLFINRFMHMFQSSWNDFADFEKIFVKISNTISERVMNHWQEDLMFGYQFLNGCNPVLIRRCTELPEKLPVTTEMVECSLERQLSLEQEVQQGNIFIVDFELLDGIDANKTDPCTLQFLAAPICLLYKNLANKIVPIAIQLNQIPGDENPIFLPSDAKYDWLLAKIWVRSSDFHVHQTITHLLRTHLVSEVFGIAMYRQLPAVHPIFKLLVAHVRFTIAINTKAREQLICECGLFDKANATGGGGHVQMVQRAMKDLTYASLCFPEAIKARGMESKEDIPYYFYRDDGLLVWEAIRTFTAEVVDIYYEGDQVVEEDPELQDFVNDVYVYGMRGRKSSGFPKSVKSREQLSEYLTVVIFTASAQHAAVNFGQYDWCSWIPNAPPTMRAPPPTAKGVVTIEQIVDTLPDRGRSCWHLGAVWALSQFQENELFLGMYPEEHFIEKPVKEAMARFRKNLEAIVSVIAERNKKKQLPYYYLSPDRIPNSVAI

[5] = Oral bioavailability in rat at 20 mg/kg; assay type: ADME, organism-based; settings: in vivo
[6] = Cmax in rat at 20 mg/kg, po after 6 hrs; assay type: ADME, organism-based; parameters: dose 20 mg/kg, route oral; settings: in vivo
[7] = tested on: Canis familiaris; assay: Inhibition of ragweed-induced urinary LTE4 production in dog at 2.5 ug/kg/min, iv; assay type: functional; settings: Canis lupus familiaris, Urine

IC50 [1]	IC50 ([2]; Homo sapiens, PMN)	IC50 ([3]; Homo sapiens, Blood)	Structure (SMILES)	other results
5.5 nM	4.2 nM	114 nM	CS(=O)(=O)CCOc1ccc(OCc2ccc3ccccc3n2)cc1C1(c2ccccc2)CC2CCC1C2 (centres undefined)	
181 nM		> 3000 nM	O=C(Nc1cccnc1)Oc1ccc(OCc2ccccn2)c(C2(c3ccccc3)CC3CCC2C3)c1 (centres undefined)	
5.6 nM	2.6 nM	140 nM	COC(=O)c1ccc(OCc2ccc3ccccc3n2)cc1C1(c2ccccc2)CC2CCC1C2 (centres undefined)	
4.1 nM	7 nM	225 nM	c1ccc(C2(c3cc(OCc4ccc5ccccc5n4)ccc3OCc3ccccn3)CC3CCC2C3)cc1 (centres undefined)	
980 nM	> 2370 nM		Oc1cc(OCc2ccc3ccccc3n2)ccc1C1(c2ccccc2)CC2CCC1C2 (centres undefined)	
776 nM	47 nM		COC(=O)COc1cc(OCc2ccc3ccccc3n2)ccc1C1(c2ccccc2)CC2CCC1C2 (centres undefined)	
3590 nM	152 nM		O=C(O)COc1cc(OCc2ccc3ccccc3n2)ccc1C1(c2ccccc2)CC2CCC1C2 (centres undefined)	
9.3 nM	1.7 nM	890 nM	COC(=O)COc1ccc(OCc2ccc3ccccc3n2)cc1C1(c2ccccc2)CCCC1	
3.7 nM	1.8 nM	200 nM	COC(=O)COc1ccc(OCc2ccc3ccccc3n2)cc1C1(c2ccccc2)CCCCC1	
94 nM	5.9 nM		COC(=O)COc1ccc(OCc2ccc3ccccc3n2)c(C2(c3ccccc3)CC3CCC2C3)c1 (centres undefined)	
14 nM	16 nM	> 3000 nM	O=C(O)COc1ccc(OCc2ccc3ccccc3n2)cc1C1(c2ccccc2)CC2CCC1C2 (centres undefined)	
3.5 nM	8 nM	300 nM	O=C(O)CCCOc1ccc(OCc2ccc3ccccc3n2)cc1C1(c2ccccc2)CC2CCC1C2 (centres undefined)	
8.6 nM	9 nM	1100 nM	COc1ccc(OCc2ccc3ccccc3n2)cc1C1(c2ccccc2)CC2CCC1C2 (centres undefined)	
6 nM	80 nM	> 3000 nM	CCCCOc1ccc(OCc2ccc3ccccc3n2)cc1C1(c2ccccc2)CC2CCC1C2 (centres undefined)	
127 nM	> 1800 nM		c1ccc2nc(COc3ccc(C4(c5ccc(OCc6ccc7ccccc7n6)cc5)CC5CCC4C5)cc3)ccc2c1 (centres undefined)	
387 nM	60 nM		OCCOc1ccc(C2(c3ccc(OCCO)cc3)CC3CCC2C3)cc1 (centres undefined)	IC50 [4]: > 8000 nM
145 nM	186 nM		Oc1ccc(C2(c3ccc(OCc4ccc5ccccc5n4)cc3)CC3CCC2C3)cc1 (centres undefined)	
182 nM	169 nM		COC(=O)COc1ccc(C2(c3ccc(OCc4ccc5ccccc5n4)cc3)CC3CCC2C3)cc1 (centres undefined)	
2070 nM	418 nM		Oc1ccc(O)c(C2(c3ccccc3)CC3CCC2C3)c1 (centres undefined)	
13.2 nM	19 nM	580 nM	Oc1ccc(OCc2ccc3ccccc3n2)cc1C1(c2ccccc2)CC2CCC1C2 (centres undefined)	IC50 [4]: 5000 nM

IC50 [1]	IC50 ([2]; Homo sapiens, PMN)	IC50 ([3]; Homo sapiens, Blood)	Structure (SMILES)	other results
4.9 nM	2.2 nM	80 nM	c1ccc(C2(c3cc(OCc4ccc5occc5n4)ccc3OCc3ccccn3)CC3CCC2C3)cc1 (centres undefined)	
98 nM	44 nM		O=C(O)COc1ccc(C2(c3ccc(OCc4ccc5ccccc5n4)cc3)CC3CCC2C3)cc1 (centres undefined)	IC50 [4]: > 6300 nM
12.4 nM	9.5 nM		O=C(O)c1ccc(OCc2ccc3ccccc3n2)cc1C1(c2ccccc2)CC2CCC1C2 (centres undefined)	
7.6 nM	7 nM	220 nM	c1ccc(C2(c3cc(OCc4nc5ccccc5s4)ccc3OCc3ccccn3)CC3CCC2C3)cc1 (centres undefined)	
3.7 nM	42 nM	150 nM	CCOC(=O)CCCOc1ccc(OCc2ccc3ccccc3n2)cc1C1(c2ccccc2)CC2CCC1C2 (centres undefined)	
18.3 nM	3.9 nM	275 nM	c1ccc(C2(c3cc(OCc4ccccn4)ccc3OCc3ccccn3)CC3CCC2C3)cc1 (centres undefined)	
4.5 nM	10.2 nM	1080 nM	c1ccc(C2(c3cc(OCc4ccc5ccccc5n4)ccc3OCc3ccc4ccccc4n3)CCCC2)cc1	
4.2 nM	6.1 nM	3000 nM	c1ccc(C2(c3cc(OCc4ccc5ccccc5n4)ccc3OCc3ccc4ccccc4n3)CCCCC2)cc1	
5 nM	5 nM	290 nM	COC(=O)COc1ccc(OCc2ccc3ccccc3n2)cc1C1(c2ccccc2)CC2CCC1C2 (centres undefined)	IC50 [4]: > 6000 nM
3150 nM	282 nM		O=C(O)COc1ccc(OCc2ccc3ccccc3n2)c(C2(c3ccccc3)CC3CCC2C3)c1 (centres undefined)	
22 nM	5 nM	1920 nM	Oc1ccc(OCc2ccc3ccccc3n2)cc1C1(c2ccccc2)CCCC1	
2.4 nM	< 1.3 nM	52 nM	O=C(Nc1cccnc1)Oc1ccc(OCc2ccc3ccccc3n2)cc1C1(c2ccccc2)CCCC1	
134 nM	24 nM		c1ccc(C2(c3cc(OCc4cccnc4)ccc3OCc3ccccn3)CC3CCC2C3)cc1 (centres undefined)	
8.6 nM	217 nM	> 3000 nM	c1ccc(COc2ccc(OCc3ccc4ccccc4n3)cc2C2(c3ccccc3)CC3CCC2C3)cc1 (centres undefined)	
6.5 nM	8.7 nM	335 nM	CN(C)CCOc1ccc(OCc2ccc3ccccc3n2)cc1C1(c2ccccc2)CC2CCC1C2 (centres undefined)	
2.5 nM			O=C(Nc1cccnc1)Oc1ccc(OCc2nc3ccccc3s2)cc1C1(c2ccccc2)CC2CCC1C2 (centres undefined)	IC50 ([2]; pmn): 1.8 nM; IC50 [3]: 86 nM
2.8 nM			O=C(Nc1cccnc1)Oc1ccc(OCc2nc3ccccc3s2)cc1C1(c2ccccc2)CC2CCC1C2 (racemic)	IC50 ([2]; pmn): 2 nM; IC50 [3]: 33 nM; bioavailability [5]: 19%; Cmax [6]: 1100 nM; inhibition in vivo at 2.5 µg/kg/min [7]: 89%
2.4 nM	3 nM		O=C(Nc1cccnc1)Oc1ccc(OCc2nc3ccccc3s2)cc1C1(c2ccccc2)CC2CCC1C2 (single isomer, unassigned; (-))	IC50 [3]: 37 nM
	3.1 nM	510 nM	CC(C)(C)Sc1c(CC(C)(C)C(=O)O)n(Cc2ccc(Cl)cc2)c2ccc(OCc3ccc4ccccc4n3)cc12 [QUIFLAPON]	
